The record followed here is US11981677B2, “Further substituted triazolo quinoxaline derivatives” (Grünenthal GmbH, priority 2018, dated 2024).

Each structure is given as a SMILES string.

This experiment concerns the target T1, Glucocorticoid Receptor (Homo sapiens, UniProt P04150).
T1 construct: expressed in transfected cells
T1 sequence (P04150 524-758 limits assumed): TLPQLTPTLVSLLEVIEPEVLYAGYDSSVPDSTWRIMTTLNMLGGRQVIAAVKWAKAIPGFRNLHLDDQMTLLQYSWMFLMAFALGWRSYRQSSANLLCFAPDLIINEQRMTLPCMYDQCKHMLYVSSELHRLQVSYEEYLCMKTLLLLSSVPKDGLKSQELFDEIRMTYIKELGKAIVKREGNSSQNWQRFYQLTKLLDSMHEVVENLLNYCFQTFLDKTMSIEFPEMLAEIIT
The experiment can be described thus: Agonistic mode of action on the glucocorticoid receptor (CHO-Gal4/GR luciferase reporter cell line). It counts as cell-based. As to conditions: CHO-Gal4/GR luciferase reporter cells; observed in the agonistic assay or the antagonistic assay (mode not given); read-out: IC50 or EC50 range. In outline: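 CHO cells stably expressing GAL4 DBD–GR ligand-binding domain fusion with GAL4-UAS firefly luciferase reporter, seeded 24 h, then treated in Opti-MEM with 8 half-log concentrations from 10 μM to 0.003 μM (0.5% DMSO), quadruplicate. Luminescence read on FLIPR after lysis with Triton/luciferin; EC50 calculated.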
Background: A reporter such as luciferase makes a cellular process visible.
Take `Cc1cc(-c2cc(F)c3c(c2C)-n2c(C)nnc2C(C)(C)N3)c2ccn(S(C)(=O)=O)c2c1` [Example 475, 6-Fluoro-1,4,4,9-tetramethyl-8-(6-methyl-1-methylsulfonyl-1H-indol-4-yl)-5H-[1,2,4]triazolo[4,3-a]quinoxaline]: the IC50 or EC50 (antagonist or agonist mode, not stated per compound) lay within 100 to 1000 nM. As to `Cc1n[nH]c2c(-c3cc(F)c4c(c3C(F)F)-n3c(C)nnc3C(C)(C)N4)cccc12` [Example 466, 9-(difluoromethyl)-6-fluoro-1,4,4-trimethyl-8-(3-methyl-1H-indazol-7-yl)-4,5-dihydro-[1,2,4]triazolo[4,3-a]quinoxaline], the IC50 or EC50 (antagonist or agonist mode, not stated per compound) lay within 100 to 1000 nM. The result for `COc1c(-c2cccc3c2ccn3S(C)(=O)=O)cc(F)c2c1-n1c(C)nnc1C(C)(C)N2` [Example 57, 6-Fluoro-9-methoxy-1,4,4-trimethyl-8-(1-methylsulfonyl-1H-indol-4-yl)-5H-[1,2,4]triazolo[4,3-a]quinoxaline] reads 100 to 1000 nM. The figure for `COCCn1ccc2c(-c3cc(F)c4c(c3C)-n3c(C)nnc3C(C)(C)N4)cccc21` [Example 300, 6-Fluoro-8-[1-(2-methoxy-ethyl)-1H-indol-4-yl]-1,4,4,9-tetramethyl-5H-[1,2,4]triazolo[4,3-a]quinoxaline] is 100 to 1000 nM. As for `Cc1c(-c2cc(Cl)cc3[nH]ccc23)cc(F)c2c1-n1c(C)nnc1C(C)(C)N2` [Example 506, 8-(6-Chloro-1H-indol-4-yl)-6-fluoro-1,4,4,9-tetramethyl-5H-[1,2,4]triazolo[4,3-a]quinoxaline], the IC50 or EC50 (antagonist or agonist mode, not stated per compound) fell in the range of 100 to 1000 nM. The result for `Cc1nnc2n1-c1c(c(F)cc(-c3cccc4c3ccn4S(C)(=O)=O)c1C1CC1)NC2(C)C` [Example 474, 9-Cyclopropyl-6-fluoro-1,4,4-trimethyl-8-(1-methylsulfonyl-1H-indol-4-yl)-5H-[1,2,4]triazolo[4,3-a]quinoxaline] reads 100 to 1000 nM; that for `Cc1c(-c2cccc3c2cnn3C)cc(F)c2c1-n1c(C)nnc1C(C)(C)N2` [Example 304, 6-Fluoro-1,4,4,9-tetramethyl-8-(1-methyl-1H-indazol-4-yl)-5H-[1,2,4]triazolo[4,3-a]quinoxaline], 100 to 1000 nM. The result for `Cc1c(-c2cc(F)cc3c(C)c[nH]c23)cc(F)c2c1-n1c(C3CC3)nnc1C(C)(C)N2` [Example 66, 1-Cyclopropyl-6-fluoro-8-(5-fluoro-3-methyl-1H-indol-7-yl)-4,4,9-trimethyl-5H-[1,2,4]triazolo[4,3-a]quinoxaline] reads 100 to 1000 nM; that for `Cc1c(-c2cc(F)cc3c2ccn3CCO)cc(Cl)c2c1-n1c(C)nnc1C(C)(C)N2` [Example 463, 2-[4-(6-Chloro-1,4,4,9-tetramethyl-5H-[1,2,4]triazolo[4,3-a]quinoxalin-8-yl)-6-fluoro-1H-indol-1-yl]-EtOH], below 100 nM; that for `COc1c(-c2ccc(F)c3[nH]ncc23)cc(F)c2c1-n1c(C)nnc1C(C)(C)N2` [Example 489, 6-Fluoro-8-(7-fluoro-1H-indazol-4-yl)-9-methoxy-1,4,4-trimethyl-5H-[1,2,4]triazolo[4,3-a]quinoxaline], 100 to 1000 nM.

As for `Cc1nnc2n1-c1c(CO)c(-c3cc(F)cc4c3ccn4S(C)(=O)=O)cc(F)c1NC2(C)C` [Example 453, [6-Fluoro-8-(6-fluoro-1-methylsulfonyl-1H-indol-4-yl)-1,4,4-trimethyl-5H-[1,2,4]triazolo[4,3-a]quinoxalin-9-yl]-MeOH], the IC50 or EC50 (antagonist or agonist mode, not stated per compound) is below 100 nM. Turning to `Cc1c(-c2cc(F)cc3c2ccn3S(C)(=O)=O)c(F)c(F)c2c1-n1c(C)nnc1C(C)(C)N2` [Example 447, 6,7-Difluoro-8-(6-fluoro-1-methylsulfonyl-1H-indol-4-yl)-1,4,4,9-tetramethyl-5H-[1,2,4]triazolo[4,3-a]quinoxaline], the IC50 or EC50 (antagonist or agonist mode, not stated per compound) was below 100 nM. The result for `Cc1nnc2n1-c1c(c(F)c(F)c(-c3cc(F)cc4[nH]ccc34)c1C(F)(F)F)NC2(C)C` [Example 516, 6,7-Difluoro-8-(6-fluoro-1H-indol-4-yl)-1,4,4-trimethyl-9-(trifluoromethyl)-5H-[1,2,4]triazolo[4,3-a]quinoxaline] reads below 100 nM; that for `COc1c(-c2cc(F)cc3c2ccn3CCO)cc(F)c2c1-n1c(C)nnc1C(C)(C)N2` [Example 55, 2-[6-Fluoro-4-(6-fluoro-9-methoxy-1,4,4-trimethyl-5H-[1,2,4]triazolo[4,3-a]quinoxalin-8-yl)-1H-indol-1-yl]-EtOH], 100 to 1000 nM. The figure for `Cc1c(-c2cccc3c2cnn3S(C)(=O)=O)c(F)c(Cl)c2c1-n1c(C)nnc1C(C)(C)N2` [Example 509, 6-Chloro-7-fluoro-1,4,4,9-tetramethyl-8-(1-methylsulfonyl-1H-indazol-4-yl)-5H-[1,2,4]triazolo[4,3-a]quinoxaline] is 100 to 1000 nM; for `Cc1c(-c2cc(F)cc3c(C)c[nH]c23)c(Cl)c(F)c2c1-n1c(C)nnc1C(C)(C)N2` [Example 526, 7-Chloro-6-fluoro-8-(5-fluoro-3-methyl-1H-indol-7-yl)-1,4,4,9-tetramethyl-5H-[1,2,4]triazolo[4,3-a]quinoxaline] it is below 100 nM.

Turning to `COc1c(-c2cc(F)cc3c2ccn3CCO)cc(F)c2c1-n1c(C3CC3)nnc1C(C)(C)N2` [Example 61, 2-[4-(1-Cyclopropyl-6-fluoro-9-methoxy-4,4-dimethyl-5H-[1,2,4]triazolo[4,3-a]quinoxalin-8-yl)-6-fluoro-1H-indol-1-yl]-EtOH], the IC50 or EC50 (antagonist or agonist mode, not stated per compound) lay in the range of 1000 to 15000 nM. The result for `COc1cc(-c2c(C)c3c(c(F)c2F)NC(C)(C)c2nnc(C)n2-3)c2ccn(S(C)(=O)=O)c2c1` [Example 522, 6,7-Difluoro-8-(6-methoxy-1-methylsulfonyl-1H-indol-4-yl)-1,4,4,9-tetramethyl-5H-[1,2,4]triazolo[4,3-a]quinoxaline] reads 100 to 1000 nM; that for `Cc1c(-c2cc(F)cc3c2ccn3S(=O)(=O)CC2CC2)cc(F)c2c1-n1c(C)nnc1C(C)(C)N2` [Example 497, 8-[1-(Cyclopropyl-methylsulfonyl)-6-fluoro-1H-indol-4-yl]-6-fluoro-1,4,4,9-tetramethyl-5H-[1,2,4]triazolo[4,3-a]quinoxaline], below 100 nM; that for `COc1c(-c2cccc3c2ccn3S(C)(=O)=O)cc(Cl)c2c1-n1c(C)nnc1C(C)(C)N2` [Example 482, 6-Chloro-9-methoxy-1,4,4-trimethyl-8-(1-methylsulfonyl-1H-indol-4-yl)-5H-[1,2,4]triazolo[4,3-a]quinoxaline], 100 to 1000 nM. The result for `Cc1nnc2n1-c1c(c(F)c(F)c(-c3cc(F)cc4c3cnn4S(C)(=O)=O)c1C(F)(F)F)NC2(C)C` [Example 519, 6,7-Difluoro-8-(6-fluoro-1-methylsulfonyl-1H-indazol-4-yl)-1,4,4-trimethyl-9-(trifluoromethyl)-5H-[1,2,4]triazolo[4,3-a]quinoxaline] reads 100 to 1000 nM; that for `Cc1nnc2n1-c1c(c(F)cc(-c3cc(F)cc4c3ccn4S(C)(=O)=O)c1C(F)F)NC2(C)C` [Example 455, 9-(difluoromethyl)-6-fluoro-8-(6-fluoro-1-(methylsulfonyl)-1H-indol-4-yl)-1,4,4-trimethyl-4,5-dihydro-[1,2,4]triazolo[4,3-a]quinoxaline], below 100 nM.

`Cc1c(-c2cccc3c2ccn3CC(F)F)cc(F)c2c1-n1c(C)nnc1C(C)(C)N2` [Example 326, 8-[1-(2,2-Difluoro-ethyl)-1H-indol-4-yl]-6-fluoro-1,4,4,9-tetramethyl-5H-[1,2,4]triazolo[4,3-a]quinoxaline]: the IC50 or EC50 (antagonist or agonist mode, not stated per compound) lay in the range of 100 to 1000 nM. The result for `COc1c(-c2cc(F)cc3cc[nH]c23)cc(F)c2c1-n1c(C)nnc1C(C)(C)N2` [Example 515, 6-Fluoro-8-(5-fluoro-1H-indol-7-yl)-9-methoxy-1,4,4-trimethyl-5H-[1,2,4]triazolo[4,3-a]quinoxaline] reads 100 to 1000 nM; that for `Cc1c(-c2cccc3c2ccn3S(C)(=O)=O)c(F)c(Cl)c2c1-n1c(C)nnc1C(C)(C)N2` [Example 502, 6-Chloro-7-fluoro-1,4,4,9-tetramethyl-8-(1-methylsulfonyl-1H-indol-4-yl)-5H-[1,2,4]triazolo[4,3-a]quinoxaline], below 100 nM; that for `COc1c(-c2cc(F)cc3c2ccn3S(C)(=O)=O)c(F)c(F)c2c1-n1c(C)nnc1C(C)(C)N2` [Example 498, 6,7-Difluoro-8-(6-fluoro-1-methylsulfonyl-1H-indol-4-yl)-9-methoxy-1,4,4-trimethyl-5H-[1,2,4]triazolo[4,3-a]quinoxaline], below 100 nM. The figure for `Cc1c(-c2ccc(C#N)c3[nH]ccc23)c(F)c(F)c2c1-n1c(C)nnc1C(C)(C)N2` [Example 520, 4-(6,7-difluoro-1,4,4,9-tetramethyl-4,5-dihydro-[1,2,4]triazolo[4,3-a]quinoxalin-8-yl)-1H-indole-7-carbonitrile] is 100 to 1000 nM.
